Test results from patent US10561716B2, “Prostate cancer vaccine” (Wisconsin Alumni Research Foundation, priority 2006, dated 2020).
“Also recorded” adds a separate entry of the source.

Key:
[1] = test system: peptide-loaded T2 cells; test: Cytotoxicity assay (LDH) of peptide-specific patient T-cell cultures against peptide-loaded T2 cells; format: cell-based, human; conditions: for Peptide-specific lysis (Number of patients): patients of eleven HLA-A2-expressing prostate cancer patients with peptide-specific T cells after 2-4 in vitro stimulations; for Peptide-specific lysis of T2 cells by peptide-specific T-cells (FIG. 6): patient T-cell lines, three effector-to-target ratios
Description: (§1) Human prostate cancer patients underwent leukapheresis, and PBMCs were isolated using a Ficoll-Paque gradient (Pharmacia, Kirkland, Quebec). Immature dendritic cells (iDCs) were generated by incubating flask-adherent PBMCs with 20 ng/mL granulocyte-macrophage colony stimulating factor and 10 ng/mL interleukin four (IL-4) for six days at 37° C./5% CO2 (cytokines from: Fitzgerald Industries, Concord, Mass.). These iDCs were then treated with 150 ng/mL IL-6, 10 ng/mL IL-1β, 10 ng/mL tumor necrosis factor alpha (TNF-α), and […] prostaglandin E2 (Fitzgerald Industries) to generate mature dendritic cells (mDCs). These mDCs were then pulsed with 20 μg/mL AR LBD-derived peptide, and after being irradiated were co-incubated with CD4+ and CD8+ T-cells negatively isolated from autologous PBMCs (Invitrogen, Carlsbad, Calif.). After incubating for 24 hours, these cultures were then treated with 10 U/mL IL-2 and 30 U/mL IL-7 (Fitzgerald Industries), and incubated for another 6 days. These cultured T-cells were re-stimulated weekly using peptide-pulsed antigen presenting cells (either mDCs or the TK6 lymphoma cell line).
(§2) T-cell cultures that underwent at least two stimulations (or splenocyte cultures that had undergone one stimulation) were collected and incubated for four hours with target cells (either T2 cells pulsed for two hours with a specific or non-specific peptide, the LNCaP prostate cancer cell line, or media alone) at various effector-to-target ratios. After incubation, supernatants were collected and levels of lactate dehydrogenase were measured using the CytoTox 96 Non-Radioactive Assay (Promega). The relative percentage of peptide-specific lysis was quantitated using the following equation: […]
(§3) To characterize CD8+ T-cell responses to the AR LBD, the amino acid sequence of the AR LBD was evaluated for potential HLA-A2-binding epitopes that fit the consensus peptide binding sequence of X-L/M-X-X-X-V-X-X-V/L (SEQ ID NO:8), using the algorithm of Parker and colleagues (Parker K C et al., 1994, J. Immunol. 152:163-175). […] These peptides were synthesized and then characterized for their affinity for HLA-A2 in vitro using T2 binding assays. […] Peptide-specific T-cell lines were then cultured from the peripheral blood of 11 HLA-A2^+ patients with prostate cancer, using each of these peptides, and then tested for their cytolytic activity against both peptide-pulsed HLA-A2-expressing target cells and the HLA-A2^+ LNCaP prostate cancer cell line. Specifically, naive T cells were isolated by magnetic negative selection (Dynal) from the peripheral blood mononuclear cells (PBMCs) of HLA-A2-expressing prostate cancer patients, and cultured in the presence of autologous cytokine-matured irradiated dendritic cells (mDC) that had been loaded with individual peptides. These cultures received interleukin 2 (IL-2) and IL-7 the day after the culture, and were re-stimulated weekly with peptide-pulsed mDCs. Beginning after two weeks of stimulation, the T-cell cultures were tested weekly for their cytolytic activity using peptide-loaded T2 cells as target cells. Peptide-specific T-cells could be cultured from the majority of patients to at least one of these peptides, and peptide-specific T-cell lines could be cultured from the majority (7/11) of HLA-A2-expressing patients against the AR811 peptide in particular (Table 2).
(§4) Table 2. Compiled results of T cell culturing and cytotoxicity assays. Shown in this table are the results obtained from cytotoxicity assays of T cell cultures from eleven HLA-A2-expressing patients with prostate cancer. In the second column is the number of patients for which peptide-specific T cells could be identified following 2-4 in vitro stimulations.

[2] = test system: HLA-A2+ LNCaP prostate cancer cell line; test: Cytotoxicity assay (LDH) of peptide-specific patient T-cell cultures against LNCaP; format: cell-based, human; set-up: key to Prostate cancer cell lysis: +: positive lysis; −: no lysis; +/−: inconclusive; conditions: for Prostate cancer cell lysis: peptide-specific T cells against HLA-A2+ LNCaP; for Lysis of the LNCaP cell line by peptide-specific T-cells (FIG. 6): patient T-cell lines, three effector-to-target ratios
Description: as §1, §2, §3, §4

[3] = test system: IFNγ and TNFα; test: Intracellular cytokine staining of AR811-specific T-cell clone; format: cell-based, human; conditions: clone restimulated with peptide, gated on CD3+/CD8+ cells
Description: A clonal T-cell line specific for the AR811 peptide was derived by limited dilution following multiple restimulations in vitro. This line was restimulated for 5 hours in vitro with T2 cells and media only (panel A), an irrelevant peptide (panel B), AR811 peptide (panel C), or PMA/Ionomycin (panel D). IFNγ and TNFα cytokine accumulation were assessed by intracellular flow cytometric analysis (Cytofix/cytoperm kit, BD Pharmingen). Cells were first stained for CD3 and CD8 expression and CD3+/CD8+ cells were analyzed for IFNγ and TNFα expression. Shown are the plots gated on CD3+/CD8+ cells.
After T-cell cultures containing AR LBD peptide-specific T-cells were identified, peptide-specific T-cell clones were isolated using limited-dilution cloning. Briefly, cultured T-cells were diluted to 400 cells/mL, and were diluted at a 1:1 ratio down the rows of a 96-well plate. These T-cells were mixed with 2×10^5 autologous PBMCs, as well as an anti-CD3 antibody (Clone UCHT1, BD Biosciences, 120 ng/mL) and IL-2 (Fitzgerald Industries, 200 U/mL), and were incubated at 37° C./5% CO2 for 12-14 days. Cultures generated from a single cell were identified, and their peptide-specificity was analyzed using a mini-cytotoxicity assay (as above). […] After three additional days, expanded T-cell clones were analyzed for cytotoxicity against peptide-specific or non-specific T2-pulsed cells (as described above). […]

[4] = test system: prostate cancer cell lines (LNCaP, MDA-Pca-2B, DU145); test: Cytotoxicity of AR811 CD8+ T-cell clone against prostate cancer cell lines, with HLA-A2 blocking antibody; format: cell-based, human; conditions: HLA-A2-negative DU145
Description: In addition, lysis was evaluated following pre-treatment of LNCaP with an HLA-A2 blocking monoclonal antibody (starburst). Shown is a cytotoxicity assay of an AR811 CD8+ cell clone. Cells were restimulated for seven days using peptide-pulsed antigen presenting cells, followed on day seven by a rest period of three days before they were analyzed for their cytotoxic activity.
To conduct a mini-cytotoxicity assay of limited-dilution clones, 50 μl (¼) of the cultured clones were incubated for four hours with either T2 cells pulsed with the specific peptide, a non-specific peptide, or media alone. For the subsequent characterization of CTL clone cytotoxicity against prostate cancer cells, cryopreserved CTL clones were thawed, washed 3 times, and restimulated by incubating the clones with peptide-pulsed irradiated TK6 cells for 7 days. These clones were then resuspended in 10 U/mL IL-2, and allowed to incubate for three days at 37° C./5% CO2. They were then analyzed for cytotoxicity (as described above) against four prostate cancer cell lines: LNCaP, DU145, LAPC4, and MDAPCa-2b cell lines. To characterize HLA-A2-restriction of observed cytotoxicity, a HLA-A2 antibody was added to the reaction (Clone BB7.2, BD Biosciences, 1 μg/mL).

[5] = test system: T2 cells pulsed with the AR811 peptide; test: Immunization of HLA-A2/DR1 (HHD-II) mice with peptide, splenocyte CTL assay; format: in vivo; conditions: once 100 μg peptide in CFA, splenocytes after one week

Sequence	Peptide-specific lysis (Number of patients) [1]	Prostate cancer cell lysis [2]	Peptide-specific lysis of T2 cells by peptide-specific T-cells (FIG. 6) [1]	Lysis of the LNCaP cell line by peptide-specific T-cells (FIG. 6) [2]	IFNγ and TNFα secretion of peptide-specific T-cell clone (FIG. 7) [3]	Lysis of prostate cancer cells by AR811 T-cell clone, HLA-A2 restriction (FIG. 8) [4]	Peptide-specific CTL after immunization (FIG. 9) [5]
ALLSSLNEL [AR700]	1/11	−					
FLCMKALLL [AR805]	3/11	+/−					
FSIIPVDGL [AR814]	3/11	−					
KLLDSVQPI [AR862]	5/11	−					
LGERQLVHVV [AR708]	1/11	−					
LLLFSIIPV [AR811]	7/11	+	lyse T2 cells in a peptide-specific fashion	could lyse the LNCaP cell line	secrete both IFNγ and TNFα in response to peptide stimulation; also recorded: secretes IFNγ and TNFα in response to peptide stimulation	lysed prostate cancer cells in an MHC class I-restricted fashion; also recorded: naturally processed HLA-A2-restricted T-cell epitope	AR811 peptide-specific CTL could be identified after immunization; also recorded: develop peptide-specific CTL
QLTKLLDSV [AR859]	2/11	+/−	showed peptide-specific lysis	did not lyse the LNCaP cell line			
RMLYFAPDLV [AR761]	6/11	+/−					
VLEAIEPGV [AR677]	2/11	−					
WMGLMVFAM [AR742]	2/11	−					
